Measured values published in patent publication US20260315431A1, “NANOMATERIAL ENCAPSULATED BIOFILM INHIBITORS FOR DENTAL CARIES TREATMENT” (THE UAB RESEARCH FOUNDATION, priority 2023, published 2026).
Values after ≈ are worked out from the molar mass of the structure shown. Like-named read-outs stand apart in the source and are kept apart here.

Legend:
[1] = Solubility in water containing 1% DMSO (UV spectroscopy); type: physicochemical; details: organic solvent or mixture; water containing 1% DMSO
Method: Solubility of MA1-6 and HA2-6 were determined as reported^46 (Table 1).
General considerations. ^1H-NMR and ^13C-NMR spectra were recorded on Bruker Avance Neo 400 and Avance II 700 spectrometers using TMS or appropriate solvent signals as internal standard. The chemical shift values are given in parts per million (ppm) relative to the internal standard used and the coupling constants (J) are given in hertz (Hz). High resolution mass spectra (HRMS) were recorded using Waters AutoSpec-Ultima™ NT magnetic sector mass spectrometer with Electron Impact (EI) Ionization source. The mass analyzer is an electric-magnetic-electric (EBE) sector (a double focusing sector). Anhydrous solvents used for reactions were purchased in Sure-Seal™ bottles from Aldrich chemical company. Other chemical reagents were purchased from Aldrich or Fisher chemical companies and used as received. Reactions were monitored with thin layer chromatography (TLC), which was done on silica gel plates with fluorescent indicator (Silicycle, silica gel, UV254, 25 μm plates). The TLC spots were observed under UV light with the wavelengths 254 nm and 365 nm. The reaction mixtures were purified by column chromatography using Si gel (32-63 μm) from Dynamic Absorbent, Inc. Melting points were determined on a Mel-Temp II melting point apparatus and are uncorrected. All tested compounds have ≥95% purity as determined by HPLC. HPLC traces were obtained using Shimadzu SPD-M20A. Solubility of compounds were determined by UV-spectroscopy method using Agilent Cary 60 UV-Vis spectrophotometer. HPLC analysis of the final compounds were conducted using Kinetex 5 μm C18 100 Å, LC Column 150×4.6 mm, compound=3 mM, 20 μL injection, solvent: mobile phase buffer, Conditions: 60% MeCN/40% H2O/0.1% Formic acid (isocratic), HPLC method 0-10 min, Signals were analyzed using a 254 nm UV detector. A chromatogram of Mobile Phase Buffer (20 μL) was obtained for comparison.

[2] = tested on: S. mutans UA159; assay: Biofilm inhibition, S. mutans UA159 (crystal violet, OD562); type: cell-based, Streptococcus mutans; details: for inhibition at 50 µM: UA159, 50 μM
Method: The bacterial strains, S. mutans UA159, S. gordonii DL1, and S. sanguinis SK36 were inoculated statically at 37° C. under 5% CO2 in Todd Hewitt Broth (THB) for 24 h. The cultures were then diluted with fresh THB (1:5) and reinoculated until optical density at 470 nm (OD470) reached 1. The optical density was read using BioTek 800TS microplate reader at 470 nm for bacterial growth and 562 nm for biofilm stained with crystal violet. Data was plotted in Graphpad Prism9.
Biofilm inhibition assays. Biofilm inhibition assays were performed in polystyrene microtiter 96 well plates. Stock solutions were prepared in chemically defined medium (CDM, JRH Biosciences, Lenexa, KS) with 2% sucrose, 1% bacteria cultures and various concentrations of the small molecule inhibitors to examine their activity against biofilm formation as described^69, 70. These stocks were assayed in 96 well plates in triplicate and incubated at 37° C. and 5% CO2 for 16 h. After reading optical density for bacterial growth, the plate was gently washed with water, dried, and stained with crystal violet, and then gently rinsed again with deionized water leaving the stained biofilm at the bottoms of the wells. Biofilms was dissolved in 200 μL of 30% acetic acid and absorbance at 562 nm was used read to determine biofilm biomass. Each assay was carried out at least in triplicate. Biofilm inhibitory concentration (IC50) of the compounds was determined by serial dilutions.
All bacterial strains (S. mutans UA159, S. gordonii DL1, and S. sanguinis SK36) were inoculated statically at 37° C. under 5% CO2 environment in Todd Hewitt Broth (THB) for 24 h^[61]. The cultures were then diluted with fresh THB (1:5) and reinoculated until the optical density at 470 nm reaches 1. The optical density was read using BioTek 800 TS absorbance reader at 470 nm for bacterial growth and 562 nm for biofilm stained with crystal violet. Data was plotted in Prism 10.0.2.
Biofilm inhibition assays were performed in polystyrene microtiter 96-well plates. Stock solutions were prepared in chemically defined medium (CDM) with 1% sucrose, 1% bacteria cultures and various concentrations of the small molecule inhibitors to examine their activity against biofilm formation as described^[62, 63]. These stocks were assayed in 96 well plates in triplicate and incubated at 37° C. and 5% CO2 for 16 h. After reading optical density for bacterial growth, the plate was washed, dried, and stained with 0.1% crystal violet which was again rinsed well with deionized water leaving the stained biofilm at the bottoms of the wells. This biofilm was dissolved in 200 μL of 30% acetic acid and absorbance at 562 nm was read to determine amount of biofilm formation. Each assay was carried out at least in triplicate. Biofilm inhibitor concentration (IC50) of the compounds was determined by serial dilutions from 0 μM-50 μM (1% DMSO).

[3] = Streptococcus mutans, UA159, read-out: Biofilm IC50
[4] = Streptococcus mutans, S. mutans UA159 biofilm, read-out: Biofilm IC50

| Structure (SMILES) | solubility [1] | S. mutans biofilm inhibition ([2]; 25 μM) | inhibition at 50 µM ([2]; Streptococcus mutans) | IC50 [2, 3] | inhibition at 25 µM ([2]; Streptococcus mutans, UA159, read-out: S. mutans biofilm inhibition, 25 μM) | IC50 [2, 4] |
| --- | --- | --- | --- | --- | --- | --- |
| O=C1/C(=C/c2cc(O)c(O)cc2O)Oc2ccccc21 [HA5, 2-[(2′,4′,5′-Trihydroxyphenyl)methylidene]-2,3-dihydro-1-benzofuran-3-one] | 120 µg/mL (≈ 444 µM) | 90% | > 95% | 6.42 µM | 80% | 6.42 µM |
| O=C1/C(=C/c2cc(O)c(O)c(O)c2)Oc2ccccc21 [HA6, 2-[(3′,4′,5′-Trihydroxyphenyl)methylidene]-2,3-dihydro-1-benzofuran-3-one] | 90.8 µg/mL (≈ 336 µM) | – | > 95% | 18.9 µM | – | 18.9 µM |
